Legend:
tumor cells = experiment: Cell-based proliferation (sensitization) assay (Example 2); conditions: ratio of GI90 of the chemotherapy agent in absence to that in presence of Chk1 inhibitor
Method: Chk1 inhibitors were tested in a cell-based proliferation assay for the ability to sensitize tumor cells to ionizing radiation or chemotherapy agents. Chk1 inhibitors were tested in combination with 5-FU, gemicitabine, ionizing radiation, camptothecin, etoposide, hydroxyurea, cisplatin, fludarabine, Ara-C and aphidicolin. For each experiment, a serial dilution of each compound in combination with a ten-point dilution of each chemotherapy agent was included, in order to determine the concentration of chemotherapeutic required to inhibit the growth of 90% (GI90) of the cells in the presence and absence of the Chk1 inhibitor. This ratio of GI90 in the absence of Chk1 inhibitor to that in the presence of Chk1 inhibitor is called the “fold sensitization.” Fold sensitization was plotted as a function of Chk1 inhibitor concentration and the amount of drug required to yield two-fold sensitization was calculated. […] Another parameter analyzed was the fold sensitization achieved at the LD50 (the dose of compound alone that inhibits growth of 50% of cells) for the compound. These two values allow direct ranking of both the potency and toxicity of Chk1 inhibitors with respect to one another.

Chk1 = Chk1 serine 296 phosphorylation, Western blot in HT29 cells; format: cell-based, human; conditions: tumor cells treated with gemcitabine; Chk1 inhibitors for 15 minutes
Method: Phosphorylation at this site is not inhibited by Wortinannin, which inhibits Atm and Atr. Therefore the phosphorylation of serine 296 is distinct from phosphorylation at serines 317 and 345 described in Example 12. […] Therefore, this approach may be used to monitor Chk1 activity in tumors in response to Chk1 activators. Further, this approach may be used to measure inhibition of Chk1 activation by Chk1 inhibitors.
Thus, HT 29 cells were treated with 20 μM gemcitabine for two hours. The gemcitabine was washed out of the cell growth media and cells were incubated for 22 additional hours. Protein lysates were prepared and separated by an SDS-polyacrylamide gel electrophoresis. Proteins were transferred to polyvinylidene fluoride (PVDF) membranes and probed with antisera (Cell Signalling) specific for phosphorlyated serine 296 (Cell Signalling). […] Further, HT29 cells treated with selective Chk1 inhibitors for 15 minutes show no serine 296 phosphorylation.

HT29 cells = experiment: Cell cycle phase distribution by propidium iodide DNA content; format: cell-based, human; conditions: low-level camptothecin, 20 nM for 24 hours
Description: The proportion of cells in different phases of the cell cycle can be measured by those skilled in the art using any one of a variety of techniques. For example, a fluorescent DNA-binding dye, propidium iodide, can be used to distinguish cells in different cell cycle phases. Since cells in G2 have twice as much DNA as cells in G1, and S phase cells show an intermediate amount of DNA, the technique allows one to identify cells in different phases based on the DNA content of a cell. This method can be carried out on cell lines and tumor specimens (Cerra et al., Methods in Cell Biology, 33:1-12, 1990) Furthermore, cells in S phase can be labeled with the nucleotide analog, bromo-deoxyuridine (BrdU) and then fixed and stained with an fluorescent-tagged antibody to BrdU. Both of these methods employ fluorescence cytometry or fluorescence activity cell sorting (FACS) to quantify the proportion of cells staining with these fluorescent markers. […]
Two cell samples, each containing the same human carcinoma cell line (HT29) were prepared. Using propidium iodide (PI) to monitor DNA content, the percentage of cells the G1, S, and G2/M phases of the cell cycle were measured before and after contact with low levels of camptothecin. […]

Structure (SMILES) | Fold Sensitization to Agent by Chk1 Inhibitor (tumor cells) [fold] | other results
O=c1[nH]cc(F)c(=O)[nH]1 [5-FU, 5-fluorouracil] | 12 | –
Nc1ccn([C@@H]2O[C@H](CO)[C@@H](O)[C@@H]2O)c(=O)n1 [Ara-C, cytosine arabinoside] | 9 | –
N.N.[Cl][Pt][Cl] [Cisplatin, cisplatin] | 3 | –
COc1cc([C@@H]2c3cc4c(cc3[C@@H](O[C@@H]3O[C@@H]5CO[C@@H](C)O[C@H]5[C@H](O)[C@H]3O)[C@H]3COC(=O)[C@H]23)OCO4)cc(OC)c1O [Etoposide, etoposide] | 3 | –
COC[C@H]1OC(=O)c2coc3c2[C@@]1(C)C1=C(C3=O)[C@@H]2CCC(=O)[C@@]2(C)C[C@H]1OC(C)=O [Wortinannin] | – | inhibition of Chk1 serine 296 phosphorylation (Chk1): not inhibited
CC[C@@]1(O)C(=O)OCc2c1cc1n(c2=O)Cc2cc3ccccc3nc2-1 [camptothecin] | 5 | G1 (%) (HT29 cells; PI staining): 6.75%; G2/M* (%) (HT29 cells; combined total in G2 + M phase): 7%
